This note sets out measurements from ChEMBL document CHEMBL1255415, “In vitro activity of penem-1 in combination with beta-lactams against blaKPC-possessing Klebsiella pneumoniae isolates” (2010).

For experiment [1], the system named is Klebsiella pneumoniae. Description: Antimicrobial activity against blaKPC-possessing Klebsiella pneumoniae isolates by agar dilution method. Format: functional. In general terms: In agar dilution, organisms are placed on agar that contains the substance at set levels.
For experiment [2], the system named is Klebsiella pneumoniae. Description: Antimicrobial activity against blaKPC-possessing Klebsiella pneumoniae isolates in presence of 4 ug/ml by agar dilution method. Format: functional.
The subject of experiment [3] is Klebsiella pneumoniae. In words: Antimicrobial activity against blaKPC-possessing Klebsiella pneumoniae isolates assessed as susceptible isolates by agar dilution method. The class given is functional.
Experiment [4] relates to Klebsiella pneumoniae. In words: Antimicrobial activity against blaKPC-possessing Klebsiella pneumoniae isolates assessed as susceptible isolates in presence of 4 ug/ml by agar dilution method. The class given is functional.
Experiment [5] has as its system Klebsiella pneumoniae. In words: Inhibition of Beta-lactamase KPC-2 in Klebsiella pneumoniae isolates assessed as reduction in antimicrobial MIC of beta-lactams by agar dilution method relative to untreated control.

In general, MIC50 refers to an inhibitory concentration at the 50% level, which refers to growth in some studies and to a panel of isolates in others. Broadly, the MIC90 is an inhibitory concentration at the 90% level, which refers to growth in some studies and to a panel of isolates in others.

Each structure is given as a SMILES string. Values after ≈ are worked out from the molar mass of the structure shown. Active and inactive are the calls of the source. The rule behind the calls is not given here.

In the case of `CO/N=C(\C(=O)N[C@@H]1C(=O)N2C(C(=O)[O-])=C(C[N+]3(C)CCCC3)CS[C@H]12)c1csc(N)n1` [CEFEPIME], the values for the MIC50 in the experiment with Klebsiella pneumoniae [1] and in the experiment on Klebsiella pneumoniae [2] were 32 µg/mL (≈ 66.6 µM) and 2 µg/mL, respectively. The results for the MIC90 in the experiment with Klebsiella pneumoniae [1] and with Klebsiella pneumoniae [2] were 128 µg/mL (≈ 266 µM) and 16 µg/mL, respectively. Moreover, the Activity in the experiment with Klebsiella pneumoniae [3] is 7.1%; in the experiment on Klebsiella pneumoniae [4], 88.1%. The “Reduction in beta-lactam MIC (qualitative call)” value (“Reduction in beta-lactam MIC” for short) in the experiment with Klebsiella pneumoniae [5] was “Active”.
On to `C[C@H]1[C@H](NC(=O)/C(=N\OC(C)(C)C(=O)O)c2csc(N)n2)C(=O)N1S(=O)(=O)O` [AZTREONAM], for which the MIC50 was at least 512 µg/mL in the experiment on Klebsiella pneumoniae [1] and 16 µg/mL in the experiment with Klebsiella pneumoniae [2]. Further, the MIC90 against Klebsiella pneumoniae [1] is at least 512 µg/mL; in the experiment on Klebsiella pneumoniae [2], 128 µg/mL. Moreover, the Activity was 0% in the experiment on Klebsiella pneumoniae [3] and 14.3% in the experiment on Klebsiella pneumoniae [4]. In addition, in the experiment with Klebsiella pneumoniae [5], the inhibition entry was “Active”.
In the case of `CCN1CCN(C(=O)N[C@@H](C(=O)N[C@@H]2C(=O)N3[C@@H]2SC(C)(C)[C@@H]3C(=O)O)c2ccccc2)C(=O)C1=O` [PIPERACILLIN], the MIC50 in the experiment with Klebsiella pneumoniae [1] was at least 512 µg/mL; with Klebsiella pneumoniae [2], 64 µg/mL. Also, the results for the MIC90 in the experiment with Klebsiella pneumoniae [1] and in the experiment on Klebsiella pneumoniae [2] were at least 512 µg/mL and 128 µg/mL, respectively. Moreover, the figures for the Activity in the experiment with Klebsiella pneumoniae [3] and with Klebsiella pneumoniae [4] were 0% and 16.7%, respectively. Also, the “Reduction in beta-lactam MIC” value in the experiment on Klebsiella pneumoniae [5] was “Active”.
Turning to `CO/N=C(\C(=O)N[C@@H]1C(=O)N2C(C(=O)O)=C(COC(C)=O)CS[C@H]12)c1csc(N)n1` [CEFOTAXIME], the values for the MIC50 with Klebsiella pneumoniae [1] and in the experiment on Klebsiella pneumoniae [2] were 64 µg/mL (≈ 141 µM) and 2 µg/mL, respectively. For the same compound, the MIC90 with Klebsiella pneumoniae [1] is at least 512 µg/mL; with Klebsiella pneumoniae [2] it was 4 µg/mL. For the same compound, the Activity in the experiment with Klebsiella pneumoniae [3] is 0%; with Klebsiella pneumoniae [4], 38.1%. In the experiment with Klebsiella pneumoniae [5], the “Reduction in beta-lactam MIC” value is “Active”.
